{"source": "patent US11731946B2", "about": "“Broad spectrum antivirulence, anti-persistence compounds” (priority 2017, dated 2023)", "key": {"MvfR regulon [1]": {"test_system": "MvfR regulon", "experiment": "Quantification of pyocyanin (OD520nm of chloroform-extracted cultures)", "format": "cell-based, P. aeruginosa", "conditions": "Pseudomonas aeruginosa"}, "MvfR regulon [2]": {"test_system": "MvfR regulon", "experiment": "LC/MS quantification of HAQs and related molecules in bacterial culture supernatants", "format": "cell-based, P. aeruginosa", "conditions": "for IC50 / activity at 50 µM: Pseudomonas aeruginosa"}, "MvfR": {"biological_target": "T1, MvfR (Pseudomonas aeruginosa, UniProt Q9I4X0)", "T1 construct": "made in house", "T1 sequence (Q9I4X0 91-332)": "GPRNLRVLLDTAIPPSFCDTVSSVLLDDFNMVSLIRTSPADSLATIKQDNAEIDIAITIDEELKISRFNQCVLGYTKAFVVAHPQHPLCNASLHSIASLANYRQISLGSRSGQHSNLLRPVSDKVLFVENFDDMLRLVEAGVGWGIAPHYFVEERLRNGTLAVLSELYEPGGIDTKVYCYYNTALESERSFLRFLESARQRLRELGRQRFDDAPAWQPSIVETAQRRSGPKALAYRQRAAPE", "experiment": "Surface plasmon resonance (SPR) binding to purified MvfR co-inducer binding domain", "design": "species or system P. aeruginosa", "protocol": "Compounds identified to interfere with MvfR were confirmed for the direct physical interaction with this protein. Using SPR, the percentage of compound's binding to the purified MvfR protein was analyzed and used to determine the binding parameters (KD, kon and koff)—thus determining the kinetic of interaction with MvfR.\nThe recombinant MvfR co-inducer binding domain was purified using Ni-NTA chromatography, as previously reported (see e.g., Xiao et al, Microbiology, 2006, 152:1679-1686; Starkey et al, PLoS Pathog. 2014, 10:e1004321; and Kefala et al, Acta. Crystallogr. Sect. F. Struct. Biol. Cryst. Commun. 2012, 68:695-697). The purified protein was immobilized with the amine coupling method at a target level of 5000 RU on Chip. SPR was performed according to previously reported procedures (see e.g., Starkey et al, PLoS Pathog. 2014, 10:e1004321; Maura et al, ACS Chemical Biology, 2017, 12:1435-1443; and Kitao et al, MBIO, in press). […] Table 3 lists the steady-state KD data measured by SPR."}, "PA14 [3]": {"test_system": "PA14", "experiment": "Antibiotic tolerance/persister (AT/P) cell formation, meropenem, CFU plating", "format": "cell-based, P. aeruginosa", "conditions": "50 μM compound", "protocol": "Wild type (PA14) P. aeruginosa was grown in liquid culture with or without Compound 54 and treated with meropenem according to published procedures (see e.g., Starkey et al, PLoS Pathog. 2014, 10:e1004321). Data are expressed as fraction of original culture surviving antibiotic treatment.\nAT/P efficacy of compounds using CFU plating was assessed by growning over-night, cultures diluted 1:100 in triplicate in fresh LB medium in the presence or absence of inhibitor, and re-grown to an OD600 of 2.0 while shaking under aeration at 37° C. Before the antibiotic treatment, aliquots were plated to obtain reference colony counts. […] At 24-h and 48-h time points, the number of surviving bacteria were assessed by plating. The survival fraction of AT/P cells was calculated by dividing the number of surviving bacteria by the number of live bacteria that were present before the antibiotic treatment (reference datum) and expressed as a mean (±SD) of at least three replicate experiments. Using the same CFU plating assay, the efficacy of all compounds identified will be tested against additional antibiotic classes: b-lactams (ceftazidime, cefepime and imipenem), quinolones (ciprofloxacin, moxifloxacin, and levofloxacin), and aminoglycosides (gentamicin and tobramycicn)."}, "[4]": {"experiment": "Pharmacokinetics in mouse plasma and lung after single subcutaneous injection", "format": "in vivo, mice", "conditions": "for stability in vivo (serum concentration): 10 mg/kg subcutaneous, over 24 h", "protocol": "FIGS. 1F-1G show pharmacokinetics measured in mouse plasma (FIG. 1F) and lung (FIG. 1G) following a single subcutaneous injection of Compounds 53, 54, or 72 at 10 mg/kg."}, "PA14 [5]": {"test_system": "PA14", "experiment": "Acute mouse lung infection model (PA14)", "format": "in vivo, mice"}, "PA14 [6]": {"test_system": "PA14", "experiment": "Mouse thigh infection model (PA14)", "format": "in vivo, mice", "conditions": "10 mg/kg SC; CFUs 24 h post-infection", "protocol": "Mice were infected with 5×10^5 and 5×10^6 PA14 cells for the thigh and lung infection model respectively. FIGS. 5A-5C: Thigh model: treatment was initiated […] and repeated at 4, 8, 12 and 18 hours. FIG. 5A: monotherapy with Compound 72, 10 mg/kg (P<0.05 Mann Whitney test); FIG. 5B-5C. Combinatorial: Compound 72 (10 mg/kg) plus Ciprofloxacin 1 mg/kg (subtherapeutic dose) (FIG. 5B: P<0.05; Figure C: P>0.05; Mann Whitney test). CFUs were assessed 24 h post-infection in the thigh (FIG. 5A), liver (FIG. 5B) and spleen (FIG. 5C). Compound 72 was administered subcutaneously and ciprofloxacin intraperitoneally (IP). […] Mice were infected with 5×10^6 PA14 cells lung infection model. Compound 54 (10 mg/kg) plus ciprofloxacin 1 mg/kg treatment (subtherapeutic dose) was initiated at 2 h post-infection and repeated at 6, 12, and 18 h post-infection. CFUs were assessed 24 h post-infection in the lung. Compound 54 was administered subcutaneously and ciprofloxacin intraperitoneally (IP).\nThigh infection studies were performed using Compounds 54 and 72."}, "[7]": {"test_system": "Caco2 intestinal epithelial cells", "experiment": "Survival of Caco2 cells after compound exposure", "format": "cell-based", "conditions": "25 μM, 3 hours exposure"}}, "note": "Values joined by “and” are separate entries in the source; they are usually repeats but may differ in a detail not shown here. Equal values may be shown once."}
{"smiles": "N#Cc1ccc(NC(=O)CC(=O)Nc2ccc(Br)cc2)cc1", "note": "[Compound 54]", "values": [{"measurement": "IC50", "setting": "MvfR regulon [1]; read-out: IC50 pyocyanin (μM)", "value": 1.8, "unit": "µM"}, {"measurement": "activity at 1 µM", "setting": "MvfR regulon [1]; read-out: pyocyanin @1 uM (%), compound at 1 uM", "value": 60.8, "unit": "%"}, {"measurement": "activity at 10 µM", "setting": "MvfR regulon [1]; read-out: pyocyanin @10 uM (%), compound at 10 uM", "value": 5.9, "unit": "%"}, {"measurement": "activity at 50 µM", "setting": "MvfR regulon [1]; read-out: pyocyanin @50 uM (%), compound at 50 uM", "value": 5.7, "unit": "%"}, {"measurement": "IC50", "setting": "MvfR regulon [2]; PA14, read-out: IC50 2-AA (μM)", "value": 4.7, "unit": "µM"}, {"measurement": "IC50", "setting": "MvfR regulon [2]; PA14, read-out: IC50 DHQ (μM)", "value": 10.1, "unit": "µM"}, {"measurement": "IC50", "setting": "MvfR regulon [2]; PA14, read-out: IC50 HHQ (μM)", "value": 11.2, "unit": "µM"}, {"measurement": "IC50", "setting": "MvfR regulon [2]; PA14, read-out: IC50 PQS (μM)", "value": 7.8, "unit": "µM"}, {"measurement": "activity at 50 µM", "setting": "MvfR regulon [2]; read-out: 2-AA @50 uM", "value": 5.63, "unit": "%"}, {"measurement": "activity at 50 µM", "setting": "MvfR regulon [2]; read-out: AA @50 uM", "value": 701, "unit": "%"}, {"measurement": "activity at 50 µM", "setting": "MvfR regulon [2]; read-out: DHQ @50 uM", "value": 10.6, "unit": "%"}, {"measurement": "activity at 50 µM", "setting": "MvfR regulon [2]; read-out: HHQ @50 uM (%)", "value": 1.76, "unit": "%"}, {"measurement": "activity at 50 µM", "setting": "MvfR regulon [2]; read-out: HQNO @50 uM (%)", "value": 12.5, "unit": "%"}, {"measurement": "IC50", "setting": "MvfR regulon [2]; read-out: IC50 AA (increase; μM)", "value": 11.3, "unit": "µM"}, {"measurement": "IC50", "setting": "MvfR regulon [2]; read-out: IC50 HQNO (μM)", "value": 8.7, "unit": "µM"}, {"measurement": "activity at 50 µM", "setting": "MvfR regulon [2]; read-out: PQS @50 uM (%)", "value": 7.4, "unit": "%"}, {"measurement": "reduction of hydroxy-2-alkylquinoline (HAQ) and 2-AA production", "setting": "MvfR regulon [2]; liquid culture grown with 50 µM Compound 54 (FIG. 1C)", "value": "5 to 10", "unit": "fold"}, {"measurement": "binding to MvfR (in words)", "setting": "MvfR; FIG. 1B", "value": "high affinity"}, {"measurement": "Signal Intensity Rmax", "setting": "MvfR; SPR", "value": 28.21}, {"measurement": "binding intensity relative to parent Compound 1", "setting": "MvfR; SPR", "value": 40, "unit": "times"}, {"measurement": "Kd", "setting": "MvfR; Steady State Binding Affinity KD (μM), SPR, steady state", "value": 0.275, "unit": "µM"}, {"measurement": "Kd", "setting": "MvfR; Steady State Binding Affinity KD [M], SPR, steady state", "value": 0.275, "unit": "µM"}, {"measurement": "Kd", "setting": "MvfR; mean KD value, SPR, mean over the compounds named", "value": "~0.25 µM and 0.25 µM"}, {"measurement": "inhibition of persistence", "setting": "PA14 [3]", "value": "inhibit persistence"}, {"measurement": "stability in vivo (serum concentration)", "setting": "[4]", "value": "stable in vivo"}, {"measurement": "stability in vivo (serum concentration)", "setting": "[4]; listed as D42", "value": "highly stable in vivo"}, {"measurement": "pharmacokinetics (in words)", "setting": "[4]; mouse, in vivo", "value": "promising pharmacokinetics"}, {"measurement": "potentiation of ciprofloxacin in reducing PA cells in mice lungs", "setting": "PA14 [5]; 10 mg/kg compound SC plus ciprofloxacin 1 mg/kg IP, CFUs 24 h post-infection", "value": "potentiates ciprofloxacin efficacy"}, {"measurement": "recoverable CFUs from infected lungs", "setting": "PA14 [5]; preliminary, intranasal infection, 10 mg/kg compound vs vehicle", "value": "reduces the recoverable CFUs from infected lungs"}, {"measurement": "bacterial CFUs at the site of infection", "setting": "PA14 [6]", "value": "reduced bacterial CFUs"}, {"measurement": "toxicity to Caco2 (survival)", "setting": "[7]", "value": "not toxic"}]}
